Values of other authors in patent publication US20030096831A1, “Ocular growth and nicotinic antagonists” (priority 2000, published 2003).
Entries after “also recorded” stand apart in the source; their conditions may differ.

Legend:
[1] = system: putative α3β4-containing receptor; conditions: cited from earlier work
[2] = system: nicotinic receptors mediating dopamine release from rat synaptosomal preparations; conditions: cited from earlier work
[3] = system: nicotinic receptors in preparations of rat thalamus; conditions: cited from earlier work
[4] = target: human muscle nicotinic receptors (Homo sapiens, UniProt P02708+P07510+Q07001); conditions: cited from earlier work
accommodation = conditions: nicotine intravitreal and subconjunctival; vecuronium bromide applied to corneas; cited from earlier work
development of myopia = conditions: chick, tree shrew, monkey and human; cited from earlier work
chick eye refraction = conditions: cited from earlier work
[5] = system: ocular elongation following spectacle-induced hyperopic defocus; conditions: applied to chick corneas; cited from earlier work

Sequence of human muscle nicotinic receptors (P02708 21-457): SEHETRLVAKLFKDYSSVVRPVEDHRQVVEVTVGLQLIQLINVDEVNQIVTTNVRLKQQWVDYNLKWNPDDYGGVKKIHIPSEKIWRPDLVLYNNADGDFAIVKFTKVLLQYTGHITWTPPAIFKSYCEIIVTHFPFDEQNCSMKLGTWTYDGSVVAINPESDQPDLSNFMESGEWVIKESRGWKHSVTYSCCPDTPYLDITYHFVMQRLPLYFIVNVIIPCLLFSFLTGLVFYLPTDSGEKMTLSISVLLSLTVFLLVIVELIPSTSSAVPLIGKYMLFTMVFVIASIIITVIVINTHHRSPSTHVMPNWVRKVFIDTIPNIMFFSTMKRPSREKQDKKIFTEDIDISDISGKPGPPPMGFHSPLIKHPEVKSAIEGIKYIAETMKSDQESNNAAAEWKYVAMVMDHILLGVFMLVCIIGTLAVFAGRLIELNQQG
Sequence of human muscle nicotinic receptors (Q07001 22-517): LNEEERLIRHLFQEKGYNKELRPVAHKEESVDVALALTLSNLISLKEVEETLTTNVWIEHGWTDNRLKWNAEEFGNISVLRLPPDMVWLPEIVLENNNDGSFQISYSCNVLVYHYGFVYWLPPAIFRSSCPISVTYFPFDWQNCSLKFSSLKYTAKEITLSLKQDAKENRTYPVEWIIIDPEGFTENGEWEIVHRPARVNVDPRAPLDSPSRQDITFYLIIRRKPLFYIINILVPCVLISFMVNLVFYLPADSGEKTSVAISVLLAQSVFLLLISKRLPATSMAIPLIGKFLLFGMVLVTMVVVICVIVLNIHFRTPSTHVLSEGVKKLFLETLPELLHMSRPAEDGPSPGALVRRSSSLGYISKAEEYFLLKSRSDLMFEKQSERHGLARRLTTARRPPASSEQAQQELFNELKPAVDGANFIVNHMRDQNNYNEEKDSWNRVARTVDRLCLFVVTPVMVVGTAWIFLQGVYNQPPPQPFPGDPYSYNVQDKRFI
Sequence of human muscle nicotinic receptors (P11230 24-501 partner): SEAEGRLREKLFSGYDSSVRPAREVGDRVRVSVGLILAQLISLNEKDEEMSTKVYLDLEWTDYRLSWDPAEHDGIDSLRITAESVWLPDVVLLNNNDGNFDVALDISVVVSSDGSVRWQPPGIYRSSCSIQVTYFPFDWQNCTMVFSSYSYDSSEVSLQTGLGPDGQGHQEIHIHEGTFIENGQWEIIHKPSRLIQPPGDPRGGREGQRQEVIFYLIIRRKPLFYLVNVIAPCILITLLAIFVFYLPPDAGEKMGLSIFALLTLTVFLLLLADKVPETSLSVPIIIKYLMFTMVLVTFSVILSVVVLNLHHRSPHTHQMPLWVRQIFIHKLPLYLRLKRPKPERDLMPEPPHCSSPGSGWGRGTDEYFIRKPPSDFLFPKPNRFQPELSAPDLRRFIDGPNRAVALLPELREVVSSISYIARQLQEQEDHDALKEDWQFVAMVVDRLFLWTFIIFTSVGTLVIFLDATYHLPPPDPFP
Sequence of human muscle nicotinic receptors (P07510 23-517): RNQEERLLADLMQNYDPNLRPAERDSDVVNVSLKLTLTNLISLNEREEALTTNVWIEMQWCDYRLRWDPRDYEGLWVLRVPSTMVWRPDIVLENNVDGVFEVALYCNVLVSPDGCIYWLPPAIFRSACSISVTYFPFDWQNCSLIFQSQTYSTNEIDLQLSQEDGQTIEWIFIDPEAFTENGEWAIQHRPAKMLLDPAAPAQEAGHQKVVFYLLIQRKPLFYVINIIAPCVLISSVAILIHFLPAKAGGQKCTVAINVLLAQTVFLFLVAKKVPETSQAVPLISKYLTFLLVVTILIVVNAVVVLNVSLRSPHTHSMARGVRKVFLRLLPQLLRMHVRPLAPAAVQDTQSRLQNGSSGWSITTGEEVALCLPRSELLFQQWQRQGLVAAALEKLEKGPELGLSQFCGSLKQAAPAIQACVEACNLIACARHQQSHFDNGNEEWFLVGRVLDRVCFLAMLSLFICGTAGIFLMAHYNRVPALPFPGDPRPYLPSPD

c1cncc(C2CC3CCN2CC3)c1 (racemic) [RJR-2429, (+/−)-2-(-3-pyridinyl)-1-azabicyclo [2.2.2]octane]
action at putative α3β4-containing receptor [1]: selectively activates | action at nicotinic receptors mediating dopamine release [2]: partial agonist | action at nicotinic receptors in preparations of rat thalamus [3]: inhibits | action at human muscle nicotinic receptors [4]: selectively activates

CN1[C@@H]2CC[C@H]1C[C@@H](OC(=O)C(CO)c1ccccc1)C2 (some centres unmarked) [atropine]
effect on accommodation in chicks (accommodation): fails to paralyze accommodation | development of myopia (development of myopia): retards the development of myopia; also recorded: blocks myopia in the chick

CN1CCCC1c1cccnc1 (centres unmarked) [nicotine]
myopic refractive shift compared to non-treated eyes (chick eye refraction; daily subconjunctival injections, not seen for subconjunctival saline): 0.75 diopters | myopic shift in refraction compared to contralateral non-injected eyes (chick eye refraction; twice daily intravitreal injections for two weeks, intravitreal saline had the same effect): ~2 diopter | effect on accommodation in chicks (accommodation): induce accommodation

CC(=O)O[C@H]1C[C@@H]2CC[C@@H]3[C@H](CC[C@@]4(C)[C@H]3C[C@H]([N+]3(C)CCCCC3)[C@@H]4OC(C)=O)[C@@]2(C)C[C@@H]1N1CCCCC1 [vecuronium bromide]
effect on accommodation in chicks (accommodation): paralyzed accommodation | ocular elongation following spectacle-induced hyperopic defocus [5]: failed to influence
